Assay results reported in BindingDB's records for doi:10.1021/jm980035y (Cephalon, 1998).
Square brackets hold non-standard residues; d marks the D form. Peptide text beside a SMILES is read from it. * marks the point of attachment. Bn = c1ccc(C*)cc1; Ms = CS(=O)(=O)*

Target: Calpain-2 catalytic subunit (Sus scrofa)
Experiment: Inhibitory activity against Calpain-II receptor in porcine kidney

| Ki [nM] | SMILES |
| --- | --- |
| 5 | CS(=O)(=O)N[C@H](COCc1ccccc1)C(=O)N[C@H](C=O)Cc1ccc(OCc2ccccc2)cc1 [(R)-3-Benzyloxy-N-[(S)-1-(4-benzyloxy-benzyl)-2-oxo-ethyl]-2-methanesulfonylamino-propionamide] (Ms-[dS](Bn)-Tyr(Bn)-aldehyde) |
| 7 | CC(OCc1ccccc1)[C@@H](NS(C)(=O)=O)C(=O)N[C@H](C=O)Cc1ccccc1 (stereo partly drawn) [(R)-N-((S)-1-Benzyl-2-oxo-ethyl)-3-benzyloxy-2-methanesulfonylamino-butyramide] |
| 17 | CS(=O)(=O)N[C@H](COCc1ccccc1)C(=O)N[C@H](C=O)CCCCNS(=O)(=O)c1ccccc1 [(R)-N-((S)-5-Benzenesulfonylamino-1-formyl-pentyl)-3-benzyloxy-2-methanesulfonylamino-propionamide] |
| 7 | CS(=O)(=O)N[C@H](CSCc1ccccc1)C(=O)N[C@H](C=O)Cc1ccccc1 [(S)-N-((S)-1-Benzyl-2-oxo-ethyl)-3-benzylsulfanyl-2-methanesulfonylamino-propionamide] (Ms-[dC](Bn)-Phe-aldehyde) |
